Data taken from PMC10487843, “Evaluation of Anticancer and Anti-Inflammatory Activities of Some Synthetic Rearranged Abietanes” (International Journal of Molecular Sciences, 2023).
≈ marks a conversion by molar mass, not a printed value.

Experiments:
HT29 cells [1] = experiment: Hoechst-stained fluorescence microscopy (nuclear morphology); assay type: cell-based, human; details: HT29, 72 h
Excerpt: To assess the apoptosis induction capacity of compounds 5 and 13 on HT29 cells, we performed Hoechst […] nuclear staining, a well-established method for visualizing the morphological changes associated with apoptosis. Two principal morphological characteristics can be observed in the apoptosis process, chromatin condensation and nuclei fragmentation. Hoechst is a dye capable of penetrating cells and binding to double-stranded DNA, emitting blue light that can be visualized by using fluorescence microscopy.
The morphological changes were analyzed using Hoechst-stained fluorescence microscopy. For the analysis, 15 × 10^4 HT29 cells were plated on a coverslip within a 24-well plate. […] The cells were washed twice with PBS, treated with cold MeOH for 3 min, washed again with PBS, and then incubated in 500 μL of Hoechst solution (50 ng/mL) in PBS for 15 min in the dark. Finally, the samples were visualized through fluorescent microscopy (DMRB, Leica Microsystems, Wetzlar, Germany) under a DAPI filter.

[2] = system: NO release in LPS-stimulated RAW 264.7 macrophage cells; experiment: Inhibition of nitric oxide production (Griess nitrite assay) in LPS-activated RAW 264.7 macrophages; assay type: cell-based, murine; details: LPS-stimulated RAW 264.7, 48 h; for NO inhibition: ¾ IC50 concentration; for IC50: Mus musculus, RAW264.7
Procedure: To evaluate the anti-inflammatory activity of the rearranged abietanes (5, 7, 17, and 19) along with their precursor 13, we conducted experiments on RAW 264.7 macrophage cells, a well-known model for screening anti-inflammatory compounds. The macrophages were stimulated with LPS to induce the maximum release of nitric oxide (NO) during the inflammatory response. Subsequently, the different compounds were incubated with the cells at sub-cytotoxic concentrations for 48 h (Figure 9). Next, we determined the concentration of nitrites in the culture medium, which was proportional to the amount of NO release.
Nitrite production was analyzed using the Griess reaction method. The concentration of nitrite was used as an indication of nitric oxide (NO) production. RAW 264.7 cells were seeded at 6 × 10^4 cells/well in 24-well cell culture plates, supplemented with 10 μg/mL of lipopolysaccharide (LPS). […] The Griess reaction was conducted by mixing 150 μL of supernatant test samples or sodium nitrite standard (0–120 μM) with 25 μL of Griess reagent A (0.1% n-(1-naphthyl) ethylenediamine dihydrochloride) and 25 μL of Griess reagent B (1% sulfanilamide in 5% of phosphoric acid) in a 96-well plate. The mixture was incubated at room temperature for 15 min, after which the absorbance was measured at 540 nm using an ELISA plate reader (Tecan Sunrise MR20–301, TECAN, Grödig, Austria). To determine the concentration of nitrite in each sample supernatant, the absorbance was referenced to the nitrite standard curve. To determine the percentage of NO production, the increase between the negative control (untreated cells) and the positive control (cells only with 10 μg/mL of LPS) was assigned 100%.

HT29 cells [3] = experiment: HT29 cell cycle analysis (PI flow cytometry); assay type: cell-based, human; details: HT29, 72 h
Procedure: Flow cytometry was employed to assess the impact of compounds 5 and 13 on the cell cycle profiles of HT29 cells after 72 h of treatment; by using propidium iodide (PI) incorporation, whose fluorescence directly correlated with DNA content, we analyzed the distribution of cells in different cell cycle phases.
The amount of DNA in the different phases of the cell cycle (G0/G1, S, and G2/M) was quantified using flow cytometry after staining with propidium iodide (PI). HT29 cells were seeded at a density of 5 × 10^4 cells per well in 24-well plates containing 1.5 mL of culture medium. […] Next, the cells were washed twice with PBS, trypsinized, and resuspended in 1 × TBS (10 mM Tris and 150 mM NaCl). After this, Vindelov buffer (100 mM Tris, 100 mM NaCl, 10 mg/mL Rnase, 1 mg/mL PI, and 0.1% Triton x-100, pH 8) was added. Finally, the cells were kept on ice and stained with 20 μL of 1 mg/mL PI solution before being measured. Each experiment analyzed approximately 10 × 10^3 cells. The experiments were performed twice, each with three replications per assay. The samples were analyzed using a flow cytometer, and the number of cells in each stage of the cell cycle was estimated by […] cell sorting (FACS) at 488 nm in an Epics XL flow cytometer (Coulter Corporation, Hialeah, FL, USA).

[4] = system: murine melanoma (B16–F10); experiment: MTT cell viability assay, B16-F10; assay type: cell-based; details: Mus musculus, 72 h; for IC80: 80% growth inhibition
Excerpt: In this study, we employed the MTT (3-(4,5-dimethyl thiazol-2-yl)-2,5-diphenyltetrazolium bromide) colorimetric assay to evaluate the cytotoxic activity of selected abietanes (compounds 5, 7, 13, 17, and 19) against three tumor cell lines: human colon adenocarcinoma (HT29), human hepatocarcinoma (HepG2), and murine melanoma (B16–F10). The MTT assay relied on the conversion of MTT to formazan by viable cells, with the formazan concentration proportional to the number of viable cells. The concentrations required for 50 and 80% growth inhibition (IC50 and IC80) were determined for each compound.
The human colorectal adenocarcinoma cell line HT29 (ECACC no. 9172201; ATCC no. HTB-38), the human hepatocarcinoma cell line HepG2 (ECACC no. 85011430), the mouse melanoma cells B16–F10 (ATCC no. CRL-6475), and the murine monocyte/macrophage like RAW 264.7 cell line (ATCC no, TIB-71) were obtained from the cell bank of the University of Granada, Spain. The tumor cell lines were cultured in DMEM (Dulbecco’s modified Eagle’s medium) supplemented with 2 mM glutamine, 10% heat-inactivated FCS (fetal calf serum), and 50 μg/mL of gentamicin (for all cancer cell lines). The RAW 264.7 cell line was cultured in RPMI1640 medium, supplemented with 2 mM glutamine, 10% heat-inactivated FCS, and 50 μg/mL of gentamicin. All cell lines were incubated at 37 °C, in an atmosphere of 5% CO2 and 95% humidity. The culture media were changed every 48 h, and the confluent cultures were separated with a trypsin solution (0.25% EDTA). In all experiments, monolayer cells were grown to 80–90% confluence in sterile cell culture flasks.
The effects of the compounds on the cell viability were established using the MTT method (Sigma, St. Louis, MO, USA). The cytotoxicity of the compounds was assessed by measuring the absorbance of MTT dye staining of metabolically competent cells. The cells were cultivated in 96-well plates at 6.0 × 10^3 cells/mL for the HT29 and RAW 264.7 cell lines, at 5.0 × 10^3 cells/mL for B16–F10 cells, and 15.0 × 10^3 cells/mL for the HepG2 cell line, with a final volume of 200 μL per well being incubated with the different products (0–100 μg/mL). After 72 h, 100 μL of MTT solution (0.5 mg/mL) in 50% of PBS and 50% of the medium was added to each well. Following incubation for 1.5 h, formazan was resuspended in 100 μL of DMSO, and each concentration was tested in triplicate. The cell viability relative to the untreated control cells was determined by measuring the absorbance at 570 nm using an ELISA plate reader (Tecan Sunrise MR20–301, TECAN, Grödig, Austria).

IC50 [4] | Structure (SMILES) | nuclear morphology, Hoechst staining (HT29 cells [1]; IC50 concentration) | nuclear morphology, Hoechst staining (HT29 cells [1]; IC80 concentration) | NO inhibition [2] | IC50 [2] | increase in the cell population in the S phase compared with the control (HT29 cells [3]; IC50 dose) | increase in the cell population in the S phase compared with the control (HT29 cells [3]; IC80 dose) | IC80 [4] | increase in the cell population in the S phase compared with the control (HT29 cells [3]; regardless of the administered dose (IC50 and IC80))
13.6 ± 0.14 µg/mL (≈ 43.9 µM) | CC(C)C1=CC2=C(C(=O)C1=O)C1=CC(=O)CC(C)(C)[C@@]1(C)C=C2 [Compound 5, Pygmaeocin B] | loss of normal nuclear architecture and chromatin condensation | formation of pyknotic or contracted nuclei followed by fragmentation into apoptotic bodies | 100% | 0.033 ± 0.0008 µg/mL (≈ 0.106 µM) | 4% | 10% | 14.04 ± 0.08 µg/mL (≈ 45.2 µM) | –
4.14 ± 0.25 µg/mL (≈ 13.8 µM) | CC(C)C1=CC2=C(C(=O)C1=O)[C@@]1(C)CCCC(C)(C)[C@@H]1CC2 [Compound 13] | loss of normal nuclear architecture and chromatin condensation | formation of pyknotic or contracted nuclei followed by fragmentation into apoptotic bodies | 99.6% | 2.03 ± 0.09 µg/mL (≈ 6.76 µM) | – | – | 5.41 ± 0.25 µg/mL (≈ 18 µM) | 10%
